Like-named read-outs stand apart in the source and are kept apart here.
Target: T1, hGR (Homo sapiens, UniProt P04150)
T1 construct: expressed in transfected cells; host or cells: HEK 293T
T1 sequence (P04150 1-777): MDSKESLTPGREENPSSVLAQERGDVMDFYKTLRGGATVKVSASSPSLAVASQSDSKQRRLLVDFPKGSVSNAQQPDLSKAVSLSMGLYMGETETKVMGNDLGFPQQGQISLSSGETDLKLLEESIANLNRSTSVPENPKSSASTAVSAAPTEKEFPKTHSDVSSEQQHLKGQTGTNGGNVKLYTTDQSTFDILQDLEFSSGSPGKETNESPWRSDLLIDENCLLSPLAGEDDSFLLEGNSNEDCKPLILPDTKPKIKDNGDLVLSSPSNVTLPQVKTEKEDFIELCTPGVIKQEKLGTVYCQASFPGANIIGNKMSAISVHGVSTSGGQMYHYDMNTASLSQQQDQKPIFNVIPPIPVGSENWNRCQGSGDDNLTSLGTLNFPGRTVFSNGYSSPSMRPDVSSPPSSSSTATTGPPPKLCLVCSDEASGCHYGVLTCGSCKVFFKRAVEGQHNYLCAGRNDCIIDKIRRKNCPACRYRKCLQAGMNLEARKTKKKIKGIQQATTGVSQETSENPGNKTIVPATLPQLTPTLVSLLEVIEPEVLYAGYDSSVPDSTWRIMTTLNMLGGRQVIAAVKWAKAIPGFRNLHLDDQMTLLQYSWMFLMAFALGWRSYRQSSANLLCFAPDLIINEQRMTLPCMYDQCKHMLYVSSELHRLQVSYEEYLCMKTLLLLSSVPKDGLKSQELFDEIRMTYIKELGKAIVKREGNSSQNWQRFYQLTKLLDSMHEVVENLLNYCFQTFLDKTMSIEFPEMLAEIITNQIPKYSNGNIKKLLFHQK
Assay: APRn selectivity: transactivation in HEK293T cells transiently expressing hGR
Assay type: cell-based
Conditions: for GR Antagonist efficacy (%): dexamethasone 10^−9 M; for Emax: HEK-293T, read-out: GR Agonist efficacy (%)
Description: Measurement of the APRn Selectivity in HEK 293T.
The HEK-293T cells were cultured and transfected according to the method described above for the PR transactivation assays. The expression vectors pcDNA-hAR, kindly provided by G. A. Coetzee, pchGR (Hellal-Levy, C et al. FEBS Lett 1999, 464, 9), and pchMR (Fagart, J. et al. EMBO J. 1998, 17, 3317) were used for studying the ability of APRn to activate or inactivate the AR, GR and MR, respectively. For each transfection assays, 2 μg of the expression vector was used together with 7 μg of the GRE2-Luc reporter vector. Dihydrotestosterone (DHT), dexamethasone (Dex) and Aldosterone (Aldo) were selected as AR, GR and MR ligands, respectively. They were used at the concentration of 10^−9 M. The APRn agonist and antagonist efficacy for AR, GR and MR were measured as described above for PR. The results are the mean±SEM of three independent experiments.
Transfection assays were performed in HEK 293T cells by using expression vectors for the hAR, hGR and hMR and the GRE2-Luc reporter used for the PR transactivation assays.

[1] = HEK293T transiently expressing hGR, mean±SEM

Row | Compound | GR Antagonist efficacy (%) [1] [%] | Emax [1] [%] | Emax [%]
1 | CC(=O)[C@H]1CC[C@H]2[C@@H]3CC=C4C[C@@H](F)CC[C@]4(C)[C@H]3CC[C@]12C [APR-16, 3β-Fluoropregn-5-en-20-one] | 0.1 ± 2.2 | 0.25 ± 0.02 | –
2 | C[C@@H]1CCC2C3CC=C4C[C@@H](F)CC[C@]4(C)C3CC[C@]2(C)[C@H]1F (stereo partly drawn) [APR-19, 3β,17α-Difluoro-17α-methyl-D-Homo-pregn-5-ene] | −3.5 ± 1.4 | – | 0.26 ± 0.05
3 | CC#C[C@]1(O)CCC2C3CC[C@H]4CCCC[C@]4(C)C3CC[C@@]21C (stereo partly drawn) [APR-42, 17α-(1-Propynyl)-5α-androstan-17β-ol] | 4.4 ± 3.3 | 0.22 ± 0.07 | –
4 | CC#C[C@]1(O)CCC2C3CC[C@H]4C[C@@H](F)CC[C@]4(C)C3CC[C@@]21C (stereo partly drawn) [APR-43, 3β-Fluoro-17α-(1-propynyl)-5α-androstan-17β-ol] | −9.0 ± 1.7 | – | 0.17 ± 0.05
5 | C[C@]12CCC3C(CC=C4C[C@@H](F)CC[C@@H]43)C1CCC2=O (stereo partly drawn) [APR-47, 3β-Fluoro-19-nor-androst-5-en-17-one] | 1.5 ± 4.3 | – | 0.16 ± 0.02
6 | CC#C[C@]1(O)CCC2C3CC=C4C[C@@H](F)CC[C@@H]4C3CC[C@@]21C (stereo partly drawn) [APR-51, 3β-Fluoro-17α-(1-propynyl)-19-nor-androst-5-en-17β-ol] | 19.3 ± 7.3 | – | 0.29 ± 0.08
7 | CC#C[C@]1(O)CCC2C3CC[C@H]4CCCC[C@@H]4C3CC[C@@]21C (stereo partly drawn) [APR-54, 17α-(1-Propynyl)-19-nor-5-androstan-17β-ol] | −0.1 ± 3.3 | 0.15 ± 0.02 | –

— US20130203718A1 (priority 2010, published 2013)
